Results on 2 molecules are retold here after US11471503B2, “Use of KOR agonist in combination with MOR agonist in preparing drug for treating pain” (JIANGSU HENGRUI MEDICINE CO., LTD., priority 2017, dated 2022).

Where a SMILES comes first, the peptide text is derived from it. [ ]: non-standard residue; d: D form. The star is where a group is joined. Gly(N-(2R-Ph-propyl)) = C[C@@H](CNCC(=O)O)c1ccccc1; Piperidin1yl(4-NH2,4-COOH) = NC1(C(=O)O)CCN(*)CC1

The test system of this test is incision pain in rats. Description: Incision pain test in rats, mechanical pain threshold by Electronic Von Frey. Format: in vivo, rat (male Wistar). The note with it: for increase of tenderness threshold compared with the model group: i.v., 30 min after injection; for tenderness threshold: tail vein i.v. 24 h after incision, measured 30 min after injection, model group 8.91 g. On the procedure:
Example 3. Treatment Effect of the Combination of the KOR Agonist and the MOR Agonist of the Present Invention on Incision Pain in Rats
Compound 5 (prepared according to the method described in Example 1), and compound 20 (prepared according to the method described in Example 2). The compound dose was calculated on bases.
Experimental male Wistar rats were purchased from Shanghai Slac Laboratory Animal Co., Ltd. The rats weighed 140-160 g when purchased, and were fed at 5 rats/cage, under a condition of 12/12 hours light/dark cycle adjustment, a constant temperature of 23±1° C., a humidity of 50-60%, and free access to food and water. After purchase, the animals were subjected to an adaptive feeding for more than 3 days before the experiment was started.
Electronic Von Frey: UGO BASILE, type 38450.
Both compound 5 and compound 20 were formulated with normal saline.
The rats were randomly divided into the following groups according to the body weight: blank control group (n=10), model group (n=10) and drug-administered group (n=50). The drug-administered group was divided into the following groups: compound 20-0.03 mg/kg group (n=10), compound 5-0.3 mg/kg group (n=10), compound 5-0.1 mg/kg+compound 20-0.03 mg/kg group (n=10), compound 5-0.3 mg/kg+compound 20-0.03 mg/kg group (n=10), and compound 5-1 mg/kg+compound 20-0.03 mg/kg group (n=10). The model group and drug-administered group were subjected to an incision surgery. During the surgery, the rats were anesthetized with isoflurane. An incision (1 cm long) passing through the skin and fascia was made with a No. 10 surgical blade in the middle of the left hind paw. The skin was sutured with a 3-0 sterile silk surgical suture. The injured site was disinfected with antibiotic ointment and iodophor. The animals were returned to their original place to recover overnight. After 24 hours, the drug was injected through the tail vein, and the blank control group and the model group were administrated with normal saline two times with an interval of 15 minutes. The group administered with compound 20 alone was intravenously injected with the corresponding dose of compound 20 and the blank solvent for formulating compound 5. The group administered with compound 5 alone was intravenously injected with the corresponding dose of compound 5 and the blank solvent for formulating compound 20. […] The mechanical pain threshold of each group was measured by the Electronic Von Frey 30 minutes after the injection to evaluate the analgesic effect of the drug on the surgical incision pain and the intensity thereof.
The experimental data were expressed as mean±standard deviation (S.D.). […]

On to `CC(C)C[C@@H](NC(=O)[C@@H](Cc1ccccc1)NC(=O)CNC[C@H](C)c1ccccc1)C(=O)N[C@H](CCCCN)C(=O)N1CCC(N)(C(=O)O)CC1` [compound 5, 4-Amino-1-((2R,5R,8R,14R)-2-(4-aminobutyl)-8-benzyl-5-isobutyl-4,7,10-trioxo-14-phenyl-3,6,9,12-tetraazapentadecan-1-oyl)piperidine-4-carboxylic acid] (H-[Gly(N-(2R-Ph-propyl))][dF][dL][dK]-{Piperidin1yl(4-NH2,4-COOH)}), for which, where the note is “compound 5 0.3 mg/kg alone”, the “increase of tenderness threshold compared with the model group” value was 101.1% and the tenderness threshold came out at 17.92 g.

Consider `CCO[C@H]1CC[C@H](NCC[C@@]2(c3ccccn3)CCOC3(CCCC3)C2)c2ccccc21` [compound 20, (1S,4S)-4-Ethoxy-N-(2-((R)-9-(pyridin-2-yl)-6-oxaspiro[4.5]decan-9-yl)ethyl)-1,2,3,4-tetrahydronaphthalen-1-amine], for which, where the note is “compound 20 0.03 mg/kg alone”, the “increase of tenderness threshold compared with the model group” value is on record as 62.3%. Besides, where the note is “compound 20 0.03 mg/kg alone, blank control 14.48 g”, the tenderness threshold is given as 14.46 g.
